{"source": "BindingDB's records for doi:10.1016/j.bmc.2006.09.055", "about": "(University of Cape Town, 2007)", "target": "T1, Falcipain 2 (Plasmodium falciparum, UniProt Q9N6S8)", "T1 sequence (Q9N6S8 whole entry)": "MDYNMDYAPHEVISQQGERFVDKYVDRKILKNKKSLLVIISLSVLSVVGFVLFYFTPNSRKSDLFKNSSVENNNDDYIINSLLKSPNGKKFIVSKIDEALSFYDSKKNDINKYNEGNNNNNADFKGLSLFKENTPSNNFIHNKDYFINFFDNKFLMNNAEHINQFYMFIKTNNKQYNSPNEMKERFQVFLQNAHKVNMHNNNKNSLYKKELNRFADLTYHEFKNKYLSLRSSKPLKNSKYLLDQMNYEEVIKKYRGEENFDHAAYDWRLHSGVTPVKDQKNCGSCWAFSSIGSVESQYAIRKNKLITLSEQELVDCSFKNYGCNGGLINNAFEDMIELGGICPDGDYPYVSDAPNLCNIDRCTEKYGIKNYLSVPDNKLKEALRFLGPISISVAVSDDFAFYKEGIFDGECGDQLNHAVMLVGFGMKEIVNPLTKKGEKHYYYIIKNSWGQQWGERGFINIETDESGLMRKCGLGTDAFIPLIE", "assay": "Falcipain-2 Inhibition Assay", "conditions": "pH 5.5; 22 °C", "experimental": "IC50 values against the recombinant falcipain-2 were determined by incubating protein with different concentrations of inhibitors in reaction buffer after addition of the substrate. Fluorescence was continuously monitored for 30 min at room temperature in a Labsystems Fluoroscan Ascent spectrofluorometer. IC50 values were determined from plots of activity over inhibitor concentration with GraphPad Prism software.", "data": [{"smiles": "NC(=S)NN=Cc1ccc(O)cc1O", "note": "[2,4-dihydroxybenzaldehyde thiosemicarbazone]", "values": [{"measurement": "IC50", "result": "> 20", "unit": "µM"}]}]}
